Laboratory results from paper PMC8039949, “A novel small-molecule PROTAC selectively promotes tau clearance to improve cognitive functions in Alzheimer-like models” (Theranostics, 2021).

Assays:
tau [1] = biological target: T1, tau (Mus musculus, UniProt P10637); experiment: Single-dose subcutaneous administration in wild-type mice, brain tau by Western blotting; format: in vivo
Description: (§1) For brain surgery and stereotaxic cerebroventricular drug delivery, the mice were placed in a stereotaxic apparatus and anesthetized with 2% isoflurane (RWD Life Science, R510-22) through a nose cone (300-500 mL/min, RWD Life Science, China, R500). The scalp was incised along the midline between the ears after the mice were sterilized with iodophors and 75% (vol/vol) alcohol. The holes were drilled stereotaxically in the skull at a cerebroventricular location (posterior 0.22 mm, lateral 0.9 mm, and ventral 2.3 mm relative to bregma). Using a microinjection system (Shenzhen RWD Life Technology Co., Ltd; RWD 69100), C004019 (5 μL, 200 μM) was infused at a rate of 0.5 μL/min. The needle was kept in place for 10 min before withdrawal. After the skin was sutured, the mice were placed on a heater for analepsia. For subcutaneous injection, C004019 was diluted with 20% HP-β-CD and injected under the skin on the back neck to reach a final concentration of 3 mg/kg (low dose) or 15 mg/kg (high dose).
(§2) The cells or hippocampal/cortex tissues were homogenized for ~ 30 min on ice in buffer [50 mM Tris·HCl pH 7.4-7.5, 100 mM NaCl, 1% (vol/vol) Triton X-100, 5 mM EDTA, 1:100 PMSF, 1:1,000 protease inhibitor cocktail containing 4-(2-Aminoethyl)-benzenesulfonyl fluoride hydrochloride, aprotinin, bestatin, leupeptin, E-64, and pepstatin A stored at 4 °C], and then centrifuged at 12,000 × g at 4 °C for 20 min. The supernatant was collected and the protein levels were analyzed using bicinchoninic acid (BCA, KF016, Sigma-Aldrich) by following the manufacturer's instruction (served as soluble protein). The pellet was further incubated with 8% (wt/vol) SDS buffer at 4 °C and then treated by ultrasonic wave to reach a complete resuspension. The suspension was spun (18,000 × g, 4 °C for 20 min) and the supernatant collected (served as insoluble fraction). The supernatant of different faction was respectively mixed with loading buffer (3:1, vol/vol) containing 200 mM Tris-HCl, pH 6.8, 8% SDS, 40% glycerol, and boiled for 10 min. For Western blotting, the proteins were separated by 10% SDS-polyacrylamide gel via electrophoresis for about 2 h and transferred to nitrocellulose membranes (0.45 nm) for 1 h. The membranes were blocked with 5% (wt/vol) BSA dissolved in PBS for 1 h and incubated with primary antibodies overnight at 4 °C in cold room. Membranes were then incubated with a secondary antibody for 1 h at room temperature and visualized using the ECL Imaging System (610007-8Q, Clinx Science Instruments Co., Ltd). Immunoreactive bands were quantitatively analyzed by Image J2x software.

tau [2] = biological target: T1, tau; experiment: Intragastrical gavage in wild-type mice, brain tau by Western blotting; format: in vivo; details: 4 m-old wild-type mice; intragastrical gavage 20 mg/kg; 48 h
Description: as §2, with “The membranes were blocked with 5% (wt/vol) BSA dissolved in PBS for 1 h and incubated with primary antibodies overnight at 4 °C in cold room. Membranes were then incubated with a secondary antibody for 1 h at room temperature and visualized using the ECL Imaging System (610007-8Q, Clinx Science Instruments Co., Ltd).” left out

tau [3] = experiment: Multiple-doses subcutaneous administration in hTau transgenic mice, brain tau; format: in vivo, mouse; details: 12 m-old hTau transgenic mice, subcutaneous 3 mg/kg once every 6 days, 5 times
Description: as §1
as §2, with “For Western blotting, the proteins were separated by 10% SDS-polyacrylamide gel via electrophoresis for about 2 h and transferred to nitrocellulose membranes (0.45 nm) for 1 h. The membranes were blocked with 5% (wt/vol) BSA dissolved in PBS for 1 h and incubated with primary antibodies overnight at 4 °C in cold room. Membranes were then incubated with a secondary antibody for 1 h at room temperature and visualized using the ECL Imaging System (610007-8Q, Clinx Science Instruments Co., Ltd).” left out, “software. […]” for “software.”

HEK293-hTau cells = experiment: CCK-8 cell viability assay; format: cell-based, human; details: 0.01, 0.1, 1, 10, 20 and 100 μM, 24 h
Description: Cell viability was assessed using CCK-8 kit by following the manufacturer's instructions. The cells were seeded at a concentration of 5,000 cells per well in a 96-well plate and then treated with various concentrations of C004019 (0, 0.01, 0.1, 1, 10, 20 and 100 μM) for 24 h. After the treatments, the culture medium was removed, and 10 μL of CCK-8 in 90 μL of medium was added. After incubating for 30 min at 37 °C, the absorbance was measured at 450 nm using a microplate reader (BioTek, 250058).

tau with Vhl (E3 ligase) = biological target: T2, tau with Vhl (E3 ligase) (Homo sapiens, UniProt P10636+P40337); experiment: Co-immunoprecipitation of tau with Vhl and tau ubiquitination in HEK293-hTau cells; format: cell-based; details: 20 μM for 6 h
T2 construct: expressed in transfected cells; host or cells: HEK293-hTau (tau stably expressed; VHL endogenous)
T2 sequence (P10636 1-441 isoform P10636-8): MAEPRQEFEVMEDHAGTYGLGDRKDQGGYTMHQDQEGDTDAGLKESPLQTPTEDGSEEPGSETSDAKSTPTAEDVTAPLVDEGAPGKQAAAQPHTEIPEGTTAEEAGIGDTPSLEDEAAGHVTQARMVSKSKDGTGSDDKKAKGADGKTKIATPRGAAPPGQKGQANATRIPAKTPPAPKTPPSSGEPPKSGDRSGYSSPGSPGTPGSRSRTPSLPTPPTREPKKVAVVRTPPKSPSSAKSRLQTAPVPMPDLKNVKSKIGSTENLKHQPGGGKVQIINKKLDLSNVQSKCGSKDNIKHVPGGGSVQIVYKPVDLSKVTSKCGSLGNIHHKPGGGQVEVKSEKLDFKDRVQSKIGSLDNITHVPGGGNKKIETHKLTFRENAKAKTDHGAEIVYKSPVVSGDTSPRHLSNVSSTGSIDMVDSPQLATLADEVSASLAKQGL
T2 sequence (P40337 whole entry): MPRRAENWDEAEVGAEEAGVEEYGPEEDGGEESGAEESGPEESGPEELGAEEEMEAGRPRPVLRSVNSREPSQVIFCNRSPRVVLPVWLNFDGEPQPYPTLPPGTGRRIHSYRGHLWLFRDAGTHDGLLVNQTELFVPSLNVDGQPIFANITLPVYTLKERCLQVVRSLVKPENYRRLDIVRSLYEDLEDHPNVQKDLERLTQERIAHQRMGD
T2 sequence (Q15369 whole entry partner): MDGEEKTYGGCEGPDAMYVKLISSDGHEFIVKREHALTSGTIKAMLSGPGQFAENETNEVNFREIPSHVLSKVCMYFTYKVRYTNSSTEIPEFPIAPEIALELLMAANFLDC
T2 sequence (Q15370 whole entry partner): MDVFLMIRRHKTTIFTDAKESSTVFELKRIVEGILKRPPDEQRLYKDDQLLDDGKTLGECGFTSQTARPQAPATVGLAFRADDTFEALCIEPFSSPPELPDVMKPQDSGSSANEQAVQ
T2 sequence (Q13617 whole entry partner): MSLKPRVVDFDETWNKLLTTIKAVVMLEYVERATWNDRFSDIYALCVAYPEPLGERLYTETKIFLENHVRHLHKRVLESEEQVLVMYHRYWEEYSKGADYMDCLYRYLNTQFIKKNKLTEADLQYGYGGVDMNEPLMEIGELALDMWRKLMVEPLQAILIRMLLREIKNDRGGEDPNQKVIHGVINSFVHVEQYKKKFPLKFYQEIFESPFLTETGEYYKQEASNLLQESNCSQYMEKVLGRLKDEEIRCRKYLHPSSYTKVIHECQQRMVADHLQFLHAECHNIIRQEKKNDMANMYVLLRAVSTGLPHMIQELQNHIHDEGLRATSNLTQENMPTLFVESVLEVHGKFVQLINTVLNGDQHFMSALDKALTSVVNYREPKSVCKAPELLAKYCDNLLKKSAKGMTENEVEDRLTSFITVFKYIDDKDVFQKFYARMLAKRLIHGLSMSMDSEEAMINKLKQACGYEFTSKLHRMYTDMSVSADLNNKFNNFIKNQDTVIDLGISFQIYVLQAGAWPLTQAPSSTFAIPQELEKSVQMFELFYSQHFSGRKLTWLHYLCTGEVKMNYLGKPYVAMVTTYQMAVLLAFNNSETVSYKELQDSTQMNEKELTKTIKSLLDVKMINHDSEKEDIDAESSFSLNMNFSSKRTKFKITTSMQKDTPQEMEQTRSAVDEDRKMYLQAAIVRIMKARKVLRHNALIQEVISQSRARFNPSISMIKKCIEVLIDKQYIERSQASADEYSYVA
T2 sequence (P62877 whole entry partner): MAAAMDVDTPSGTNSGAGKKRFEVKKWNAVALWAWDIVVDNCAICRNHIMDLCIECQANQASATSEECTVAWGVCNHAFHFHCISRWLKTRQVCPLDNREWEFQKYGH
Description: Cell lysates were centrifuged at 12,000 g for 20 min at 4 °C and the supernatant were incubated with protein G agarose beads (Millipore, 16-266), pre-washed with cold PBS for 1 h at 4 °C to remove non-specific proteins. After centrifuged (14,000 g) at 4 °C for 15 min, the supernatant was collected and protein concentration was measured by BCA assay. The supernatant was sequentially incubated with primary antibodies (2 μg/100 μg) overnight at 4 °C with rotating in the first day and protein G agarose beads (20 μL/100 μL) the next day. After spin (6,000 g) for 2 min at 4 °C, the pellets were collected, washed with precooled washing buffer for 3 times, resuspended in buffer (50 mM Tris-HCl, pH 6.8, 2% SDS, 10% glycerol), boiled for 10 min, and analyzed by Western blotting.

T1 sequence (P10637 114-430 isoform P10637-2 limits assumed): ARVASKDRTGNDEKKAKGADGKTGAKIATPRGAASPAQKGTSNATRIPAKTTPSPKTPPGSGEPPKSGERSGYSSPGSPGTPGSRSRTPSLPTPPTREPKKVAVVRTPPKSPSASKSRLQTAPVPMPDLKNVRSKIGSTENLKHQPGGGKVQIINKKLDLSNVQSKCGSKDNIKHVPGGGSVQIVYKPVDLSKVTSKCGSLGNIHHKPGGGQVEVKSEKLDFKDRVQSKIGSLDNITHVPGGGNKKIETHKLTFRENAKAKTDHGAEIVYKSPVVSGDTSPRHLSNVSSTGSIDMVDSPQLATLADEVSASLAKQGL

CC(=O)N1CCCN(c2nc(NCCc3cccs3)nc(N(C)CC(=O)NCCOCCOCCOCC(=O)N[C@H](C(=O)N3C[C@H](O)C[C@H]3C(=O)NCc3ccc(-c4scnc4C)cc3)C(C)(C)C)n2)CC1 [C004019]
duration of tau reduction in the brain (tau [1]; 4 m-old wild-type mice, single-dose subcutaneous 3 mg/kg): sustained tau reduction till 8 days
tau level in hippocampus and cortex (tau [1]; 4 m-old wild-type mice, subcutaneous 3 mg/kg, 24 h, compared with 15 mg/kg): much more significant tau reduction than that of high dose
tau level in hippocampus and cortex (tau [1]; 4 m-old wild-type mice, subcutaneous 15 mg/kg, 24 h and 48 h): Significant tau reduction
tau reduction (tau [1]; wild-type mice, 8 days after one treatment): 50%
tau level in hippocampus and cortex (tau [2]): no significant tau reduction was detected
p-tau and tau aggregation (HT7, AT8 immunohistochemistry, Thioflavin S staining) (tau [3]): Reduction of p-tau and tau aggregation
soluble and insoluble tau in cortex extracts (tau [3]; Western blotting): could reduce both soluble and insoluble tau
total and p-tau levels in hippocampal extracts (tau [3]; Western blotting): significantly reduced total and p-tau levels
cell viability (CCK8 assay) (HEK293-hTau cells): did not induce any significant change in cell viability
ubiquitination level of tau (tau with Vhl (E3 ligase)): significantly increased the ubiquitination level of tau
